Columns and labels:
Test in all cases: post-emergence herbicidal activity, greenhouse
Type in all cases: in vivo
Downy Brome = tested on: Downy Brome
Description: (§1) A good grade of top soil is placed in aluminum pans having holes in the bottom and compacted to a depth of 0.95 to 1.27 cm. from the top of the pan. A predetermined number of seeds of each of several dicotyledonous and monocotyledonous annual plant species and/or vegetative propagules for the perennial plant species are placed on the soil and pressed into the soil surface. The seeds and/or vegetative propagules are covered with soil and leveled. The pans are then placed on a sand bench in the greenhouse and watered from below as needed. After the plants reach the desired age (two to three weeks), each pan except for the control pans is removed individually to a spraying chamber and sprayed by means of an atomizer operating at a positive air pressure of approximately 1.46 kg/cm^2 absolute. The atomizer contains 6 ml. of a solution or suspension of the chemical. In that 6 ml., is an amount of a cyclohexanone emulsifying agent mixture to give a spray solution or suspension which contains about 0.4% by weight of the emulsifier. The spray solution or suspension contains a sufficient amount of the candidate chemical in order to give application rates corresponding to those set forth in the tables. The spray solution is prepared by taking an aliquot of a 1.0% by weight stock solution or suspension of the candidate chemical in an organic solvent such as acetone or tetrahydrofuran or in water. The emulsifying agent employed is a mixture comprising 35 weight percent butylamine dodecylbenzene sulfonate and 65 weight percent of a tall oil ethylene oxide condensate having about 11 moles of ethylene oxide per mole of tall oil. The pans are returned to the greenhouse and watered as before and the injury to the plants as compared to the control is observed at approximately two and four weeks as indicated in the tables under WAT and the results recorded. In some instances, the two-week observations are omitted.
(§2) The post-emergence herbicidal activity index used in Table I is as follows: […]

Johnsongrass = conditions: Table I, 4 WAT
Description: as §1, §2

Wild Buckwheat = conditions: Table II
Description: as §1, §2

Smartweed = tested on: Smartweed
Description: as §1, §2

Cocklebur = tested on: Cocklebur
Description: as §1, §2

Sugar Beet = conditions: Table II
Description: as §1, §2

Lambsquarters = tested on: Lambsquarters
Description: as §1, §2

Barnyardgrass = tested on: Barnyardgrass
Description: as §1, §2

Yellow Nutsedge = conditions: Table I, 4 WAT
Description: as §1, §2

Quackgrass = conditions: Table I, 4 WAT
Description: as §1, §2

Crabgrass = conditions: Table II
Description: as §1, §2

Velvetleaf = tested on: Velvetleaf
Description: as §1, §2

Soybean = conditions: Table II
Description: as §1, §2

Wheat = conditions: Table II
Description: as §1, §2

Rice = conditions: Table II
Description: as §1, §2

Sorghum = conditions: Table II
Description: as §1, §2

Morningglory = tested on: Morningglory
Description: as §1, §2

Hemp Sesbania = conditions: Table II
Description: as §1, §2

Panicum Spp = conditions: Table II
Description: as §1, §2

Question: What does the source list for `N#CCN(CP(=O)(Oc1ccccc1)Oc1ccccc1)SSCCc1ccccc1` [XII, Phosphonic acid, [[(cyanomethyl)[(2-phenylethyl)dithio]amino]methyl]-, diphenyl ester]?
Answer: post-emergence herbicidal activity index (Downy Brome; Table I, 4 WAT, 5.6 kg/h): 0 (0-24% control); post-emergence herbicidal activity index (Downy Brome; Table I, 4 WAT, 11.2 kg/h): 3 (75-99% control); post-emergence herbicidal activity index (Downy Brome; Table II, 2 WAT, 0.28 kg/h): 0 (0-24% control); post-emergence herbicidal activity index (Downy Brome; Table II, 4 WAT, 1.12 kg/h): 0 (0-24% control); post-emergence herbicidal activity index (Downy Brome; Table II, 4 WAT, 5.6 kg/h): 2 (50-74% control); post-emergence herbicidal activity index (Johnsongrass; 5.6 kg/h): 1 (25-49% control); post-emergence herbicidal activity index (Johnsongrass; 11.2 kg/h): 4 (100% control); post-emergence herbicidal activity index (Wild Buckwheat; 2 WAT, 0.28 kg/h): 0 (0-24% control); post-emergence herbicidal activity index (Wild Buckwheat; 4 WAT, 1.12 kg/h): 0 (0-24% control); post-emergence herbicidal activity index (Wild Buckwheat; 4 WAT, 5.6 kg/h): 2 (50-74% control); post-emergence herbicidal activity index (Smartweed; Table I, 4 WAT, 5.6 kg/h): 0 (0-24% control); post-emergence herbicidal activity index (Smartweed; Table I, 4 WAT, 11.2 kg/h): 3 (75-99% control); post-emergence herbicidal activity index (Smartweed; Table II, 2 WAT, 0.28 kg/h): 0 (0-24% control); post-emergence herbicidal activity index (Smartweed; Table II, 4 WAT, 1.12 kg/h): 0 (0-24% control); post-emergence herbicidal activity index (Smartweed; Table II, 4 WAT, 5.6 kg/h): 2 (50-74% control); post-emergence herbicidal activity index (Cocklebur; Table I, 4 WAT, 5.6 kg/h): 2 (50-74% control); post-emergence herbicidal activity index (Cocklebur; Table I, 4 WAT, 11.2 kg/h): 4 (100% control); post-emergence herbicidal activity index (Cocklebur; Table II, 2 WAT, 0.28 kg/h): 0 (0-24% control); post-emergence herbicidal activity index (Cocklebur; Table II, 4 WAT, 1.12 kg/h): 0 (0-24% control); post-emergence herbicidal activity index (Cocklebur; Table II, 4 WAT, 5.6 kg/h): 2 (50-74% control); post-emergence herbicidal activity index (Sugar Beet; 2 WAT, 0.28 kg/h): 0 (0-24% control); post-emergence herbicidal activity index (Sugar Beet; 4 WAT, 1.12 kg/h): 0 (0-24% control); post-emergence herbicidal activity index (Sugar Beet; 4 WAT, 5.6 kg/h): 1 (25-49% control); post-emergence herbicidal activity index (Lambsquarters; Table I, 4 WAT, 5.6 kg/h): 4 (100% control); post-emergence herbicidal activity index (Lambsquarters; Table I, 4 WAT, 11.2 kg/h): 4 (100% control); post-emergence herbicidal activity index (Lambsquarters; Table II, 2 WAT, 0.28 kg/h): 0 (0-24% control); post-emergence herbicidal activity index (Lambsquarters; Table II, 4 WAT, 1.12 kg/h): 0 (0-24% control); post-emergence herbicidal activity index (Lambsquarters; Table II, 4 WAT, 5.6 kg/h): 3 (75-99% control); post-emergence herbicidal activity index (Barnyardgrass; Table I, 4 WAT, 5.6 kg/h): 2 (50-74% control); post-emergence herbicidal activity index (Barnyardgrass; Table I, 4 WAT, 11.2 kg/h): 2 (50-74% control); post-emergence herbicidal activity index (Barnyardgrass; Table II, 2 WAT, 0.28 kg/h): 0 (0-24% control); post-emergence herbicidal activity index (Barnyardgrass; Table II, 4 WAT, 1.12 kg/h): 0 (0-24% control); post-emergence herbicidal activity index (Barnyardgrass; Table II, 4 WAT, 5.6 kg/h): 2 (50-74% control); post-emergence herbicidal activity index (Yellow Nutsedge; 5.6 kg/h): 2 (50-74% control); post-emergence herbicidal activity index (Yellow Nutsedge; 11.2 kg/h): 2 (50-74% control); post-emergence herbicidal activity index (Quackgrass; 5.6 kg/h): 0 (0-24% control); post-emergence herbicidal activity index (Quackgrass; 11.2 kg/h): 3 (75-99% control); post-emergence herbicidal activity index (Crabgrass; 2 WAT, 0.28 kg/h): 0 (0-24% control); post-emergence herbicidal activity index (Crabgrass; 4 WAT, 1.12 kg/h): 0 (0-24% control); post-emergence herbicidal activity index (Crabgrass; 4 WAT, 5.6 kg/h): 3 (75-99% control); post-emergence herbicidal activity index (Velvetleaf; Table I, 4 WAT, 5.6 kg/h): 0 (0-24% control); post-emergence herbicidal activity index (Velvetleaf; Table I, 4 WAT, 11.2 kg/h): 2 (50-74% control); post-emergence herbicidal activity index (Velvetleaf; Table II, 2 WAT, 0.28 kg/h): 0 (0-24% control); post-emergence herbicidal activity index (Velvetleaf; Table II, 4 WAT, 1.12 kg/h): 0 (0-24% control); post-emergence herbicidal activity index (Velvetleaf; Table II, 4 WAT, 5.6 kg/h): 2 (50-74% control); post-emergence herbicidal activity index (Soybean; 2 WAT, 0.28 kg/h): 0 (0-24% control); post-emergence herbicidal activity index (Soybean; 4 WAT, 1.12 kg/h): 0 (0-24% control); post-emergence herbicidal activity index (Soybean; 4 WAT, 5.6 kg/h): 1 (25-49% control); post-emergence herbicidal activity index (Wheat; 2 WAT, 0.28 kg/h): 0 (0-24% control); post-emergence herbicidal activity index (Wheat; 4 WAT, 1.12 kg/h): 0 (0-24% control); post-emergence herbicidal activity index (Wheat; 4 WAT, 5.6 kg/h): 1 (25-49% control); post-emergence herbicidal activity index (Rice; 2 WAT, 0.28 kg/h): 0 (0-24% control); post-emergence herbicidal activity index (Rice; 4 WAT, 1.12 kg/h): 0 (0-24% control); post-emergence herbicidal activity index (Rice; 4 WAT, 5.6 kg/h): 0 (0-24% control); post-emergence herbicidal activity index (Sorghum; 2 WAT, 0.28 kg/h): 0 (0-24% control); post-emergence herbicidal activity index (Sorghum; 4 WAT, 1.12 kg/h): 1 (25-49% control); post-emergence herbicidal activity index (Sorghum; 4 WAT, 5.6 kg/h): 3 (75-99% control); post-emergence herbicidal activity index (Morningglory; Table I, 4 WAT, 5.6 kg/h): 1 (25-49% control); post-emergence herbicidal activity index (Morningglory; Table I, 4 WAT, 11.2 kg/h): 1 (25-49% control); post-emergence herbicidal activity index (Morningglory; Table II, 2 WAT, 0.28 kg/h): 0 (0-24% control); post-emergence herbicidal activity index (Morningglory; Table II, 4 WAT, 1.12 kg/h): 0 (0-24% control); post-emergence herbicidal activity index (Morningglory; Table II, 4 WAT, 5.6 kg/h): 1 (25-49% control); post-emergence herbicidal activity index (Hemp Sesbania; 2 WAT, 0.28 kg/h): 0 (0-24% control); post-emergence herbicidal activity index (Hemp Sesbania; 4 WAT, 1.12 kg/h): 0 (0-24% control); post-emergence herbicidal activity index (Hemp Sesbania; 4 WAT, 5.6 kg/h): 1 (25-49% control); post-emergence herbicidal activity index (Panicum Spp; 2 WAT, 0.28 kg/h): 0 (0-24% control); post-emergence herbicidal activity index (Panicum Spp; 4 WAT, 1.12 kg/h): 0 (0-24% control); post-emergence herbicidal activity index (Panicum Spp; 4 WAT, 5.6 kg/h): 1 (25-49% control)

Reference: patent publication US4508663A, “Process for preparing thiosulfenamide derivatives of N-phosphonomethylglycinonitriles” (Monsanto Company, priority 1983, dated 1985)
